Results on five compounds are retold here after patent US10085450B2, “Tetrazolinone compound and use thereof” (SUMITOMO CHEMICAL COMPANY, LIMITED, priority 2013, dated 2018).

Assay [1] has as its system rice blast fungus (Magnaporthe grisea). Type of assay: in vivo. The settings on record: 500 ppm water dilution sprayed on rice (NIHONBARE); contact with infected rice seedling for 6 days.
In assay [2] the test system is tomato late blight fungus (Phytophthora infestans). It counts as in vivo. The settings on record: 500 ppm water dilution sprayed on tomato (PATIO) seedling; spores inoculated after air-drying.
The test system of assay [3] is diamondback moth (Plutella xylostella). The assay can be described thus: Test Example 20: diamondback moth larvae mortality on sprayed cabbage. Type of assay: in vivo. The settings on record: 120 h. As for the experimental part: Cabbage (cultivar: GREEN BALL) was sowed and grown in a polyethylene cup until the third to fourth true leaf was developed. The test chemical solution was sprayed over the cabbage at a rate of 20 mL per cup. After drying the chemical solution, the cabbage cut from the base was disposed in a polyethylene cup (5.5 cm in diameter) with a filter paper laid on the bottom. Five (5) heads of third-instar larvae of diamondback moth (Plutella xylostella) were released and then a lid was put on the cup. After storage at 25° C. for 5 days, the number of the surviving insects was counted and mortality was calculated by the following equation.

In assay [4] the test system is common house mosquito (Culex pipiens pallens). The assay can be described thus: whole plant or invertebrate. The settings on record: 24 h.
Description: The test chemical solution (0.7 mL) was added to 100 mL of deionized water to thereby adjust the concentration of the active ingredient to 3.5 ppm. Twenty (20) heads of last instar larvae of common house mosquito (Culex pipiens pallens) were released in the solution. After 1 day, the number of the dead insects was counted.
Mortality was determined by the following equation. Mortality (%)=(number of dead insects/number of tested insects)×100

Consider `Cc1cccc(-n2nnn(C)c2=O)c1COc1c(C)c(-c2ccccc2)nn1C` [present compound 8], for which the “lesion areas on the treated plant with respect to the lesion area on the non-treated plant” value in assay [1] is given as not above 30%. Besides, the “area of lesion spots on the treated plant relative to that on an untreated plant” value in assay [2] is recorded as not above 30%. Compound `Cc1cccc(-n2nnn(C)c2=O)c1COc1cc(-c2ccc(Cl)cc2)nn1C` [present compound 4] came in with a mortality at 500 ppm in assay [3] not below 80%. Turning to `Cc1cccc(-n2nnn(C)c2=O)c1COc1csc(-c2ccccc2)n1` [present compound 10], the mortality at 500 ppm in assay [3] is not below 80%. Turning to `Cc1cccc(-n2nnn(C)c2=O)c1COc1nn(C)c(-c2ccc(Cl)cc2)c1C` [present compound 29, 1-(2-{[1,4-dimethyl-5-(4-chlorophenyl)-1H-pyrazol-3-yloxy]methyl}-3-methylphenyl)-4-methyl-1,4-dihydrotetrazol-5-one], in assay [4], the mortality at 3.5 ppm came to 95%. As for `Cc1cccc(-n2nnn(C)c2=O)c1COc1ccc(-c2ccc(Cl)cc2)s1` [present compound 15, 1-{2-[5-(4-chlorophenyl)thiophen-2-yloxymethyl]-3-methylphenyl}-4-methyl-1,4-dihydrotetrazol-5-one], the mortality at 3.5 ppm in assay [4] was found to be 95%.
